The text below walks through data of ChEMBL document CHEMBL3580628, “Introduction of polar groups on the naphthalene scaffold of molecular tongs inhibiting wild-type and mutated HIV-1 protease dimerization” (Medchemcomm, 2014).

A word on the Ki: it is a measure of affinity in units of concentration, obtained from inhibition or displacement. For orientation: inhibition means the percentage by which the read-out fell short of the control.

In data set [1] the target is T1, Protease (Human immunodeficiency virus 1, UniProt Q9YQ12). The data set can be described thus: Dimerziation inhibition of HIV1 wild type protease using fluorogenic substrate DABCYL- -abu-SQNYPIVQ-EDANS at pH 4.7 by fluorimetric assay.
Data set [2] in a line: Dimerziation inhibition of HIV1 ANAM11 protease mutant using fluorogenic substrate DABCYL- -abu-SQNYPIVQ-EDANS at pH 4.7 by fluorimetric assay. More on the design: species or system Human immunodeficiency virus 1.
Data set [3] is described as follows: Retention time of the compound. The class given is physicochemical.
Data set [4] deals with Protease (Human immunodeficiency virus 1) (UniProt Q9YQ12). The data set can be described thus: Competitive inhibition of HIV1 protease using fluorogenic substrate DABCYL- -abu-SQNYPIVQ-EDANS assessed as dissociation for dimer-inhibitor complex at 28 uM at pH 4.7 by fluorimetric assay.
Data set [5] can be described thus: Metabolic stability in Roswell park memorial institute medium containing 20% fetal calf serum assessed as degradation after 48 hrs by HPLC analysis. The class given is ADME. The conditions noted are these: cattle.
Data set [6] concerns the target T1, Protease. In words: Competitive inhibition of HIV1 protease using fluorogenic substrate DABCYL- -abu-SQNYPIVQ-EDANS assessed as dissociation for dimer-inhibitor complex at pH 4.7 by fluorimetric assay.

Consider `COc1ccc(NC(C)=O)cc1C(=O)NNC(=O)[C@H](CCCCNC(=O)CCCOc1ccc2cc(CN)c(OCCCC(=O)NCCCC[C@H](NC(=O)OC(C)(C)C)C(=O)NNC(=O)c3cc(NC(C)=O)ccc3OC)cc2c1)NC(=O)OC(C)(C)C`, for which the Ki worked out at 300 nM in data set [1] and 2450 nM in data set [2]. Besides, the Retention_time in data set [3] is listed as 11.1 min.
For `COc1ccc(NC(C)=O)cc1C(=O)NNC(=O)[C@H](CCCCNC(=O)CCCOc1ccc2ccc(OCCCC(=O)NCCCC[C@H](NC(=O)OC(C)(C)C)C(=O)NNC(=O)c3cc(NC(C)=O)ccc3OC)cc2c1)NC(=O)OC(C)(C)C`, the values for the Ki in data set [1] and in data set [2] were 280 nM and 2000 nM, respectively. The Retention_time in data set [3] stood at 14.8 min.
Regarding `COc1ccc(NC(C)=O)cc1C(=O)NNC(=O)[C@H](CCCCNC(=O)CCCOc1ccc2cc(NC(=O)CN3CCN(C(=O)OCc4ccccc4)CC3)c(OCCCC(=O)NCCCC[C@H](NC(=O)OC(C)(C)C)C(=O)NNC(=O)c3cc(NC(C)=O)ccc3OC)cc2c1)NC(=O)OC(C)(C)C`, in data set [4], the inhibition was determined as 0%. In data set [3], this molecule gave a Retention_time of 13.8 min.
Molecule `COc1ccc(NC(C)=O)cc1C(=O)NNC(=O)[C@@H](NC(=O)CCCOc1ccc2ccc(OCCCC(=O)N[C@H](C(=O)NNC(=O)c3cc(NC(C)=O)ccc3OC)C(C)C)cc2c1)C(C)C` had a Ki in data set [1] of 220 nM. Besides, the Retention_time in data set [3] stood at 13.8 min.
Turning to `COc1ccc(NC(C)=O)cc1C(=O)NNC(=O)[C@H](CCCCNC(=O)CCCOc1ccc2cc(N)c(OCCCC(=O)NCCCC[C@H](NC(=O)OC(C)(C)C)C(=O)NNC(=O)c3cc(NC(C)=O)ccc3OC)cc2c1)NC(=O)OC(C)(C)C`, the Ki stood at 550 nM in data set [1] and 830 nM in data set [2]. The same molecule returned a Retention_time in data set [3] of 12.2 min. Further, the Stability result in data set [5] is on record as “Stable”.
Turning to `COc1ccc(NC(C)=O)cc1C(=O)NNC(=O)[C@H](CCCCNC(=O)CCCOc1ccc2cc(NC(=O)CN3CCNCC3)c(OCCCC(=O)NCCCC[C@H](NC(=O)OC(C)(C)C)C(=O)NNC(=O)c3cc(NC(C)=O)ccc3OC)cc2c1)NC(=O)OC(C)(C)C`, the inhibition in data set [4] turned out to be 18%. Moreover, the Retention_time in data set [3] is recorded as 11.2 min.
In data set [1], `COc1ccc(NC(C)=O)cc1C(=O)NNC(=O)[C@@H](NC(=O)CCCOc1ccc2cc(NCC3COC(C)(C)O3)c(OCCCC(=O)N[C@H](C(=O)NNC(=O)c3cc(NC(C)=O)ccc3OC)C(C)C)cc2c1)C(C)C` (some centres not stated) yielded a Ki of 2700 nM. The molecule further yielded a Retention_time in data set [3] of 14.2 min.
In the same order, the values of `COc1ccc(NC(C)=O)cc1C(=O)NNC(=O)[C@H](CCCCNC(=O)CCCOc1ccc2cc(NCC(O)CO)c(OCCCC(=O)NCCCC[C@H](NC(=O)OC(C)(C)C)C(=O)NNC(=O)c3cc(NC(C)=O)ccc3OC)cc2c1)NC(=O)OC(C)(C)C` (some centres not stated) are 2750 nM and 12.7 min.
Regarding `CNCC(=O)Nc1cc2ccc(OCCCC(=O)NCCCC[C@H](NC(=O)OC(C)(C)C)C(=O)NNC(=O)c3cc(NC(C)=O)ccc3OC)cc2cc1OCCCC(=O)NCCCC[C@H](NC(=O)OC(C)(C)C)C(=O)NNC(=O)c1cc(NC(C)=O)ccc1OC`, the inhibition in data set [4] came to 18%. The same molecule yielded a Retention_time in data set [3] of 11.1 min.
As to `COc1ccc(NC(C)=O)cc1C(=O)NNC(=O)[C@H](CCCCNC(=O)CCCOc1ccc2cc(CCCN)c(OCCCC(=O)NCCCC[C@H](NC(=O)OC(C)(C)C)C(=O)NNC(=O)c3cc(NC(C)=O)ccc3OC)cc2c1)NC(=O)OC(C)(C)C`, the inhibition in data set [4] was 35%. For the same molecule, the Retention_time in data set [3] is 11.4 min.
For the molecule `COc1ccc(NC(C)=O)cc1C(=O)NNC(=O)[C@@H](NC(=O)CCCOc1ccc2cc(N)c(OCCCC(=O)N[C@H](C(=O)NNC(=O)c3cc(NC(C)=O)ccc3OC)C(C)C)cc2c1)C(C)C`, the Ki came out at 400 nM in data set [1] and 940 nM in data set [2]. The Retention_time in data set [3] was determined as 10.6 min.
With `COc1ccc(NC(C)=O)cc1C(=O)NNC(=O)[C@H](CCCCNC(=O)CCCOc1ccc2cc(CNC(=N)N)c(OCCCC(=O)NCCCC[C@H](NC(=O)OC(C)(C)C)C(=O)NNC(=O)c3cc(NC(C)=O)ccc3OC)cc2c1)NC(=O)OC(C)(C)C`, the Ki in data set [6] stood at 15000 nM. In addition, in data set [3], the Retention_time was 11.2 min.
On to `COc1ccc(NC(C)=O)cc1C(=O)NNC(=O)[C@H](CCCCNC(=O)CCCOc1ccc2cc(NCC3COC(C)(C)O3)c(OCCCC(=O)NCCCC[C@H](NC(=O)OC(C)(C)C)C(=O)NNC(=O)c3cc(NC(C)=O)ccc3OC)cc2c1)NC(=O)OC(C)(C)C` (some centres not stated), for which the affinity in data set [1] corresponds to a Ki of 5900 nM. For the same molecule, the Retention_time in data set [3] stood at 15.2 min.
As to `COc1ccc(NC(C)=O)cc1C(=O)NNC(=O)[C@@H](NC(=O)CCCOc1ccc2cc(NCC(O)CO)c(OCCCC(=O)N[C@H](C(=O)NNC(=O)c3cc(NC(C)=O)ccc3OC)C(C)C)cc2c1)C(C)C` (some centres not stated), the Ki in data set [1] came to 600 nM; in data set [2], 940 nM. In addition, the Retention_time in data set [3] was 11.3 min. Further, the Stability result in data set [5] was “Stable”.
As for `COc1ccc(NC(C)=O)cc1C(=O)NNC(=O)[C@H](CCCCNC(=O)CCCOc1ccc2cc(CCCN(C)C)c(OCCCC(=O)NCCCC[C@H](NC(=O)OC(C)(C)C)C(=O)NNC(=O)c3cc(NC(C)=O)ccc3OC)cc2c1)NC(=O)OC(C)(C)C`, in data set [4], the inhibition came out at 0%. This molecule also displayed a Retention_time in data set [3] of 11.4 min.
